Source: the NIST ThermoML archive (doi:10.1016/j.jct.2005.07.009)

Columns and labels:
[1] = xn = mol fraction of the nth substance listed; details: 298.15 K, 101 kPa, Liquid, Vibrating tube method
[2] = excess molar enthalpy (molar enthalpy of mixing); xn = mol fraction of the nth substance listed; details: 298.15 K, 101 kPa, Liquid

BrCCCCCBr [1,5-dibromopentane] + CCOC(=O)CC
Details	excess molar enthalpy [kcal/mol]	mass density [kg/m3]
[1], x2 = 0.1344	–	1600.12
[1], x2 = 0.2009	–	1552.01
[1], x2 = 0.263	–	1506.12
[1], x2 = 0.3276	–	1457.5
[1], x2 = 0.3859	–	1412.68
[1], x2 = 0.4471	–	1364.74
[1], x2 = 0.5096	–	1314.84
[1], x2 = 0.6206	–	1223.48
[1], x2 = 0.6836	–	1170.2
[1], x2 = 0.7919	–	1075.76
[1], x2 = 0.8414	–	1031.42
[1], x2 = 0.8957	–	981.96
[2], x2 = 0.0603	0.00839	–
[2], x2 = 0.1247	0.0137	–
[2], x2 = 0.193	0.0172	–
[2], x2 = 0.261	0.0185	–
[2], x2 = 0.3249	0.0179	–
[2], x2 = 0.3861	0.0152	–
[2], x2 = 0.4412	0.0111	–
[2], x2 = 0.4896	0.007	–
[2], x2 = 0.5244	0.00378	–
[2], x2 = 0.5365	0.00325	–
[2], x2 = 0.5747	-0.000717	–
[2], x2 = 0.5773	-0.00105	–
[2], x2 = 0.6302	-0.00359	–
[2], x2 = 0.6884	-0.00526	–
[2], x2 = 0.752	-0.00629	–
[2], x2 = 0.8187	-0.00576	–
[2], x2 = 0.8848	-0.00461	–
[2], x2 = 0.9461	-0.00289	–

BrCCCCCBr [1,5-dibromopentane] + CCOC(C)=O
Details	excess molar enthalpy [kcal/mol]	mass density [kg/m3]
[1], x2 = 0.0866	–	1642.62
[1], x2 = 0.1624	–	1595.36
[1], x2 = 0.2251	–	1554.67
[1], x2 = 0.2991	–	1504.62
[1], x2 = 0.3623	–	1460.11
[1], x2 = 0.4225	–	1416.21
[1], x2 = 0.5458	–	1321
[1], x2 = 0.6601	–	1225.85
[1], x2 = 0.765	–	1131.91
[1], x2 = 0.8611	–	1039.57
[1], x2 = 0.9561	–	941.92
[2], x2 = 0.0775	0.0259	–
[2], x2 = 0.1619	0.0431	–
[2], x2 = 0.2431	0.0561	–
[2], x2 = 0.3197	0.0639	–
[2], x2 = 0.3909	0.0676	–
[2], x2 = 0.4536	0.0674	–
[2], x2 = 0.5079	0.0658	–
[2], x2 = 0.5103	0.0652	–
[2], x2 = 0.5486	0.0622	–
[2], x2 = 0.5612	0.062	–
[2], x2 = 0.5934	0.0591	–
[2], x2 = 0.6025	0.0577	–
[2], x2 = 0.6413	0.053	–
[2], x2 = 0.6919	0.0458	–
[2], x2 = 0.7451	0.0375	–
[2], x2 = 0.7998	0.0284	–
[2], x2 = 0.8546	0.0198	–
[2], x2 = 0.9082	0.012	–
[2], x2 = 0.9563	0.00528	–

BrCCCCCBr [1,5-dibromopentane] + CCOC=O
Details	excess molar enthalpy [kcal/mol]	mass density [kg/m3]
[1], x2 = 0.089	–	1651.25
[1], x2 = 0.1775	–	1605.2
[1], x2 = 0.2567	–	1560.84
[1], x2 = 0.3412	–	1509.84
[1], x2 = 0.4134	–	1463.17
[1], x2 = 0.5374	–	1374.43
[1], x2 = 0.7024	–	1237.83
[1], x2 = 0.7951	–	1149.61
[1], x2 = 0.8844	–	1054.85
[1], x2 = 0.9227	–	1010.83
[2], x2 = 0.0896	0.0659	–
[2], x2 = 0.1866	0.108	–
[2], x2 = 0.279	0.138	–
[2], x2 = 0.3638	0.157	–
[2], x2 = 0.4389	0.166	–
[2], x2 = 0.5051	0.169	–
[2], x2 = 0.5631	0.166	–
[2], x2 = 0.6125	0.158	–
[2], x2 = 0.6372	0.153	–
[2], x2 = 0.6548	0.149	–
[2], x2 = 0.6837	0.142	–
[2], x2 = 0.6928	0.139	–
[2], x2 = 0.7324	0.128	–
[2], x2 = 0.7827	0.108	–
[2], x2 = 0.831	0.088	–
[2], x2 = 0.8797	0.065	–
[2], x2 = 0.9254	0.0385	–
[2], x2 = 0.966	0.0136	–

BrCCCCCCBr [1,6-dibromohexane] + CCCC(=O)OCC
Details	excess molar enthalpy [kcal/mol]	mass density [kg/m3]
[1], x2 = 0.0741	–	1554.45
[1], x2 = 0.1407	–	1511.27
[1], x2 = 0.2026	–	1470.35
[1], x2 = 0.2669	–	1427.12
[1], x2 = 0.3292	–	1384.45
[1], x2 = 0.4493	–	1300.05
[1], x2 = 0.5934	–	1194.98
[1], x2 = 0.6267	–	1170.08
[1], x2 = 0.6854	–	1125.55
[1], x2 = 0.7302	–	1091.1
[1], x2 = 0.7843	–	1048.89
[1], x2 = 0.8939	–	961.41
[2], x2 = 0.0629	0.00655	–
[2], x2 = 0.1341	0.0105	–
[2], x2 = 0.2059	0.0133	–
[2], x2 = 0.2734	0.014	–
[2], x2 = 0.3411	0.0136	–
[2], x2 = 0.4017	0.0124	–
[2], x2 = 0.4524	0.0103	–
[2], x2 = 0.4952	0.00796	–
[2], x2 = 0.5312	0.00562	–
[2], x2 = 0.5662	0.00308	–
[2], x2 = 0.6022	0.000191	–
[2], x2 = 0.6161	-0.000359	–
[2], x2 = 0.6589	-0.00213	–
[2], x2 = 0.7115	-0.00304	–
[2], x2 = 0.7699	-0.00366	–
[2], x2 = 0.8324	-0.00347	–
[2], x2 = 0.8956	-0.00213	–
[2], x2 = 0.9514	-0.000884	–

BrCCCCCCBr [1,6-dibromohexane] + CCCCC(=O)OCC
Details	excess molar enthalpy [kcal/mol]	mass density [kg/m3]
[1], x2 = 0.0648	–	1555.13
[1], x2 = 0.1774	–	1474.02
[1], x2 = 0.2329	–	1433.91
[1], x2 = 0.2964	–	1387.86
[1], x2 = 0.4137	–	1302.47
[1], x2 = 0.5312	–	1216.59
[1], x2 = 0.5868	–	1175.74
[1], x2 = 0.6906	–	1099.24
[1], x2 = 0.7612	–	1047.08
[1], x2 = 0.819	–	1004.24
[1], x2 = 0.8814	–	957.89
[1], x2 = 0.934	–	918.67
[2], x2 = 0.0622	0.00727	–
[2], x2 = 0.1322	0.011	–
[2], x2 = 0.2027	0.0138	–
[2], x2 = 0.2702	0.015	–
[2], x2 = 0.3359	0.0146	–
[2], x2 = 0.3944	0.0124	–
[2], x2 = 0.4464	0.00935	–
[2], x2 = 0.4901	0.00566	–
[2], x2 = 0.5274	0.00182	–
[2], x2 = 0.5624	-0.00213	–
[2], x2 = 0.6245	-0.00614	–
[2], x2 = 0.6853	-0.00767	–
[2], x2 = 0.7481	-0.00784	–
[2], x2 = 0.8143	-0.00715	–
[2], x2 = 0.8791	-0.00547	–
[2], x2 = 0.947	-0.00327	–
